These results are taken from PubChem BioAssay AID330 (DTP/NCI, 2004).

Values joined by “and” are separate entries in the source; they are usually repeats but may differ in a detail not shown here. Equal values may be shown once. Toxic doses and inconclusive results are not listed.

The experiment concerns P388 leukemia ip, CD2F1 mice, survival T/C. Put plainly: NCI In Vivo Anticancer Drug Screen. Data for tumor model P388 Leukemia (intraperitoneal) in CD2F1 (CDF1) mice. The note with it: endpoint: median survival time, higher = longer survival. A digest of the protocol:
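Mice carrying the transplanted tumor received test compound or vehicle. Survival was recorded in each group, and the value is the treated-group measurement divided by that of the vehicle-treated control group.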

Where [1] appears, read: dose: 100.0 mg/kg/injection, schedule: Q01DX009 (ip), vehicle: saline.
Setting [2] is: dose: 12.5 mg/kg/injection, schedule: Q01DX009 (ip), vehicle: water.
Where [3] appears, read: dose: 50.0 mg/kg/injection, schedule: Q01DX005 (ip), vehicle: saline with Tween-80.
Where [4] appears, read: dose: 100.0 mg/kg/injection, schedule: Q01DX005 (ip), vehicle: saline with Tween-80.
[5] abbreviates: dose: 200.0 mg/kg/injection, schedule: Q01DX005 (ip), vehicle: saline with Tween-80.
The mark [6] stands for this setting: dose: 60.0 mg/kg/injection, schedule: Q01DX005 (ip), vehicle: saline with Tween-80.
Where [7] appears, read: dose: 120.0 mg/kg/injection, schedule: Q01DX005 (ip), vehicle: saline with Tween-80.
Setting [8] is: dose: 240.0 mg/kg/injection, schedule: Q01DX005 (ip), vehicle: saline with Tween-80.
[9] abbreviates: dose: 12.5 mg/kg/injection, schedule: Q01DX005 (ip), vehicle: saline.
The mark [10] stands for this setting: dose: 25.0 mg/kg/injection, schedule: Q01DX005 (ip), vehicle: saline.

With `CCc1nc2c(cnn2C)c(=O)n1C`, the T/C by setting is: (dose: 50.0 mg/kg/injection, schedule: Q01DX005 (ip), vehicle: Klucel (hydroxypropylcellulose) (HPC)) 89 % of control; (dose: 100.0 mg/kg/injection, schedule: Q01DX005 (ip), vehicle: Klucel (hydroxypropylcellulose) (HPC)) 98 % of control; (dose: 200.0 mg/kg/injection, schedule: Q01DX005 (ip), vehicle: Klucel (hydroxypropylcellulose) (HPC)) 90 % of control.

`CCOC(=O)CCc1[nH]c(=S)ncc1C(=O)OCC`: the T/C is, setting by setting: (dose: 7.5 mg/kg/injection, schedule: Q01DX009 (ip), vehicle: saline with Tween-80) 96 % of control; (dose: 15.0 mg/kg/injection, schedule: Q01DX009 (ip), vehicle: saline with Tween-80) 101 % of control; (dose: 30.0 mg/kg/injection, schedule: Q01DX009 (ip), vehicle: saline with Tween-80) 104 % of control.

On to `Cc1c(-c2ccccc2)ccnc1/C=N/NC(N)=S`, for which the T/C runs as follows: (dose: 6.25 mg/kg/injection, schedule: Q01DX009 (ip), vehicle: saline) 101 % of control; (dose: 12.5 mg/kg/injection, schedule: Q01DX009 (ip), vehicle: saline) 120 % of control; (dose: 25.0 mg/kg/injection, schedule: Q01DX009 (ip), vehicle: saline) 120 % of control; under setting [1], 103 % of control.

For `COc1cccc2c1C(=O)c1c(O)c3c(c(O)c1C2=O)C[C@@](O)(C(C)=O)C[C@@H]3OC1CC(NCc2ccccc2)C(O)C(C)O1` (stereo partly specified), the T/C reads like this: (dose: 0.78 mg/kg/injection, schedule: Q01DX009 (ip), vehicle: water) 114 % of control; (dose: 1.56 mg/kg/injection, schedule: Q01DX009 (ip), vehicle: water) 161 % of control and 162 % of control; (dose: 2.35 mg/kg/injection, schedule: Q04DX003 (ip), vehicle: water) 106 % of control; (dose: 3.13 mg/kg/injection, schedule: Q01DX009 (ip), vehicle: water) 166 % of control and 185 % of control; (dose: 6.48 mg/kg/injection, schedule: Q04DX003 (ip), vehicle: water) 166 % of control; (dose: 9.4 mg/kg/injection, schedule: Q04DX003 (ip), vehicle: water) 153 % of control. Further, the T/C by setting is: (dose: 10.8 mg/kg/injection, schedule: Q04DX003 (ip), vehicle: water) 204 % of control; under setting [2], 94 % of control; (dose: 18.0 mg/kg/injection, schedule: Q04DX003 (ip), vehicle: water) 115 % of control; (dose: 18.8 mg/kg/injection, schedule: Q04DX003 (ip), vehicle: water) 169 % of control; (dose: 37.5 mg/kg/injection, schedule: Q04DX003 (ip), vehicle: water) 116 % of control; (dose: 75.0 mg/kg/injection, schedule: Q04DX003 (ip), vehicle: water) 95 % of control.

As for `Nc1cc(N)c([N+](=O)[O-])cc1[N+](=O)[O-]`, the T/C is 91 % of control (dose: 100.0 mg/kg/injection, schedule: Q04DX003 (ip), vehicle: saline with Tween-80); 100 % of control (dose: 200.0 mg/kg/injection, schedule: Q04DX003 (ip), vehicle: saline with Tween-80); 87 % of control (dose: 400.0 mg/kg/injection, schedule: Q04DX003 (ip), vehicle: saline with Tween-80).

Turning to `CC(NC(=O)CCl)C(=O)O` (stereo unspecified), the T/C runs as follows: (dose: 25.0 mg/kg/injection, schedule: Q01DX009 (ip), vehicle: saline with Tween-80) 105 % of control and 109 % of control; (dose: 50.0 mg/kg/injection, schedule: Q01DX009 (ip), vehicle: saline with Tween-80) 101 % of control and 103 % of control; (dose: 50.0 mg/kg/injection, schedule: Q01DX009 (ip), vehicle: saline) 101 % of control; (dose: 100.0 mg/kg/injection, schedule: Q01DX009 (ip), vehicle: saline with Tween-80) 105 % of control and 95 % of control; under setting [1], 105 % of control; (dose: 200.0 mg/kg/injection, schedule: Q01DX009 (ip), vehicle: saline with Tween-80) 103 % of control. Further, where the note is “dose: 200.0 mg/kg/injection, schedule: Q01DX009 (ip), vehicle: saline”, the T/C is 101 % of control.

On to `[Se]c1nccn2cnnc12`, for which the T/C was 99 % of control and 101 % of control (dose: 1.56 mg/kg/injection, schedule: Q01DX001 (ip), vehicle: saline); 100 % of control and 96 % of control (dose: 3.12 mg/kg/injection, schedule: Q01DX001 (ip), vehicle: saline); 99 % of control and 105 % of control (dose: 6.25 mg/kg/injection, schedule: Q01DX001 (ip), vehicle: saline); 103 % of control and 109 % of control (dose: 12.5 mg/kg/injection, schedule: Q01DX001 (ip), vehicle: saline).

For the compound `Cc1ccc2nc3c(nc2c1)n(-c1ccccc1)c(=O)n3-c1cccc(Br)c1`, the T/C is, setting by setting: under setting [3], 88 % of control; under setting [4], 91 % of control; under setting [5], 100 % of control.

Take `C[Si](C)(C)C#CC[Si](C)(C)C`: the T/C reads like this: under setting [6], 97 % of control; under setting [7], 100 % of control; under setting [8], 106 % of control.

For `COc1ccc2oc(=O)n(N=C(C)C)c(=O)c2c1`, the T/C is, setting by setting: (dose: 60.0 mg/kg/injection, schedule: Q01DX005 (ip), vehicle: Klucel (hydroxypropylcellulose) (HPC)) 97 % of control; (dose: 120.0 mg/kg/injection, schedule: Q01DX005 (ip), vehicle: Klucel (hydroxypropylcellulose) (HPC)) 95 % of control; (dose: 240.0 mg/kg/injection, schedule: Q01DX005 (ip), vehicle: Klucel (hydroxypropylcellulose) (HPC)) 94 % of control.

With `COc1cccc(/C=C(\NC(=O)c2ccccc2)c2nc3ccccc3s2)c1`, the T/C is 110 % of control under setting [3], 116 % of control under setting [4] and 116 % of control under setting [8].

For the compound `CCSC(SCC)C(NC(C)=O)C(O)C(O)C(O)CO` (stereo unspecified), the T/C was 114 % of control under setting [2]; 113 % of control (dose: 25.0 mg/kg/injection, schedule: Q01DX009 (ip), vehicle: water); 107 % of control (dose: 50.0 mg/kg/injection, schedule: Q01DX009 (ip), vehicle: water); 109 % of control (dose: 100.0 mg/kg/injection, schedule: Q01DX009 (ip), vehicle: water); 106 % of control (dose: 200.0 mg/kg/injection, schedule: Q01DX009 (ip), vehicle: water).

As for `CC(/C=N/Nc1ccccc1)=N\N=c1/scc(-c2ccc(Cl)cc2)n1-c1ccc(Cl)cc1`, the T/C under setting [3] is 86 % of control, the T/C under setting [4] is 92 % of control and the T/C under setting [5] is 94 % of control.

On to `C(=C/c1cc2cc(C3=NCCN3)ccc2o1)/C=C/c1cc2cc(C3=NCCN3)ccc2o1`, for which the T/C reads like this: (dose: 100.0 mg/kg/injection, schedule: Q04DX003 (ip), vehicle: saline) 106 % of control; (dose: 200.0 mg/kg/injection, schedule: Q04DX003 (ip), vehicle: saline) 104 % of control; (dose: 400.0 mg/kg/injection, schedule: Q04DX003 (ip), vehicle: saline) 110 % of control.

For the compound `O=c1cccc2n1C[C@H]1C[C@@H]2CN2CCCC[C@H]12`, the T/C was 99 % of control (dose: 6.25 mg/kg/injection, schedule: Q01DX005 (ip), vehicle: saline) and 99 % of control under setting [9].

Turning to `NC(N)=N/N=C/C(O)C(O)C(O)C(O)CO` (stereo unspecified), the T/C is 100 % of control (dose: 60.0 mg/kg/injection, schedule: Q01DX005 (ip), vehicle: saline); 100 % of control (dose: 120.0 mg/kg/injection, schedule: Q01DX005 (ip), vehicle: saline); 106 % of control (dose: 240.0 mg/kg/injection, schedule: Q01DX005 (ip), vehicle: saline).

Turning to `CON1C(=O)C(c2cccs2)=C2SCC=C21`, the T/C reads like this: (dose: 15.0 mg/kg/injection, schedule: Q01DX005 (ip), vehicle: saline with Tween-80) 107 % of control; (dose: 30.0 mg/kg/injection, schedule: Q01DX005 (ip), vehicle: saline with Tween-80) 112 % of control; under setting [6], 112 % of control and 114 % of control; under setting [7], 112 % of control.

Take `N#C/C=C/c1cccc([N+](=O)[O-])c1`: the T/C is 100 % of control (dose: 100.0 mg/kg/injection, schedule: Q01DX001 (ip), vehicle: saline with Tween-80); 100 % of control (dose: 200.0 mg/kg/injection, schedule: Q01DX001 (ip), vehicle: saline with Tween-80); 100 % of control (dose: 400.0 mg/kg/injection, schedule: Q01DX001 (ip), vehicle: saline with Tween-80).

For `CCN(CC)CCCC(C)N(C)CC(C)CCC1=C(C)CCCC1(C)C` (stereo unspecified), the T/C is 97 % of control under setting [9]; 101 % of control under setting [10]; 104 % of control (dose: 50.0 mg/kg/injection, schedule: Q01DX005 (ip), vehicle: saline).

For `CC(C)(C)N1COC2CCCC21` (stereo unspecified), the T/C under setting [9] is 108 % of control and the T/C under setting [10] is 100 % of control.
